Values of other authors as cited in patent publication US9982018B2, “Amatoxin derivatives” ([…] GMBH, priority 2013, dated 2018).

How the values were obtained:
RNA polymerase II = RNA polymerase II (Homo sapiens, UniProt P24928); settings: read-out: KD of complex with RNA polymerase II
[1] = naturally occurring amatoxin lacking the γ-hydroxyl group

Substance | Kd (RNA polymerase II) [nM] | toxicity [1]
amanitin | 3 | –
amanullin | – | considerably reduced toxicity
